Counter-ions that a name gives are not always drawn. Like-named read-outs stand apart in the source and are kept apart here.
Legend:
[1] = target: T1, GST-tagged PTPN2 protein (Homo sapiens, UniProt P17706); experiment: Primary assay of PTPN2 enzymatic activity inhibition (DiFMUP fluorescence); assay type: biochemical; conditions: DiFMUP substrate 2 μM, 60 min at RT
T1 construct: purchased ActiveMotif 31592
Description: Compound activity was determined using GST-tagged PTPN2 protein (Cat #31592, ActiveMotif) (SEQ ID NO: 1) in an in vitro enzymatic reaction. The enzymatic reaction was carried out in assay buffer (50 mM HEPES Na salt pH 7.2-7.4, 2 mM EDTA, 100 mM NaCl, 52 ng/μL BSA, and 6 mM DTT). The compounds were dispensed on a 384 well Diamond Well Plate (Axigen, Cat #P-384-120SQ-C-S) using the Biomek FX liquid handling system at 100× solutions of compounds in DMSO. 2× PTPN2 (final concentration 0.004 ng/μL) was prepared in 1× Assay buffer and 25 μL of mixture per well was added into Reaction plate (Optiplate, black, Perkin Elmer, Cat #6007270). Add 25 μL of 1× buffer to Ctrl- (Substrate w/o PTPN2) wells followed by centrifugation at 100 g for 1 min. Next step the Compounds were added to Reaction plate using Biomek station via following steps: 3 ul of 100× compounds (in DMSO) were mixed with 27 μL of Assay Buffer, then 5 μL of this mixture was added to Reaction plate with 25 μL of PTPN2 Mix. Plates were centrifuged for 1 min at 100 g and incubated for another 10 minutes at room temperature. Finally, 20 μL of 2.5× Substrate (DiFUMP, Invitrogen™ Cat #D6567) mix was added into appropriate wells of Reaction plate to the final concentration of 2 μM, plate was centrifuged at 100 g for 1 min followed by incubation at RT for 60 min, and the Fluorescence Intensity was measured using a Microplate Reader (ClarioStar Plus, excitation 360 nm, emission 450 nm). The % inhibition was then used to calculate the IC50 values. The IC50 values are shown in Table A1, wherein “A” corresponds to IC50<5.0 nm, “B” corresponds to 5.0 nm≤IC50<10.0 nm, “C” corresponds to 10.0 nm≤IC50<50.0 nm, “D” corresponds to 50.0 nm≤IC50<100.0 nm, and “E” corresponds to 100.0 nm≤IC50<500.0 nm, and “F” corresponds to 500.0 nm≤IC50.

[2] = test system: B16F10 mouse melanoma cells; experiment: Tumor cells B16F10 cellular growth IFNγ-induced inhibition assay (CellTiter-Glo); assay type: cell-based; conditions: for IC50: B16-F10, 72 h, 3 days incubation; for inhibition at 100 µM: B16-F10, B16F10, 100 μM compound
Description: B16F10 mouse melanoma cells (ATCC Cat #CRL-6475) were seeded at a density of 500 cells per well in a 384-well clear bottom plate (Corning Cat #3712, Corning, N.Y.) in 40 μL total volume of DMEM+10% FBS (PanEco Cat #C420, Russia and Sigma Cat #F4135, St. Louis, Mo.). Cells were allowed to adhere overnight at 37° C., 5% CO2. On the following day, 250× solutions of compounds in DMSO (Sigma Cat #D2650) were prepared into […] plate (Diamond Well Plate, Axigen, Cat #P-384-120SQ-C-S) (final concentration of 1×) and DMSO only controls were included. Dilution Plate (Diamond Well Plate (Axigen, Cat #P-384-120SQ-C-S) was prepared by adding 49 μL of culture medium per well: half of the plate with culture medium only, half with culture medium+IFNγ (5 ng/ml). A 1 μL aliquot of 250× compounds ([…] plate) was added to 49 μL of culture medium (Dilution plate), then a 10 μL aliqut of the mixture was transferred to Reaction plate with 40 μL of cells followed by centrifugation at 240 g for 1 min. After 3 days of incubation, 10 μL of CellTiter-Glo (Promega) was added to the cells, plates were centrifuged at 240 g for 1 min, and luminescence signal was measured. For each compound, the percent growth inhibition at every compound dose level was calculated relative to the “DMSO/with IFNγ” control and used to determine the IC50.

[3] = B16F10, + IFNγ, read-out: IC50 + IFNγ
[4] = B16F10, no IFNγ, read-out: IC50 no IFNγ
[5] = + IFNγ, read-out: % Growth Inhibition at 100 μM + IFNγ
[6] = no IFNγ, read-out: % Growth Inhibition at 100 μM no IFNγ

T1 sequence (P17706 with tags, fused parts or gaps): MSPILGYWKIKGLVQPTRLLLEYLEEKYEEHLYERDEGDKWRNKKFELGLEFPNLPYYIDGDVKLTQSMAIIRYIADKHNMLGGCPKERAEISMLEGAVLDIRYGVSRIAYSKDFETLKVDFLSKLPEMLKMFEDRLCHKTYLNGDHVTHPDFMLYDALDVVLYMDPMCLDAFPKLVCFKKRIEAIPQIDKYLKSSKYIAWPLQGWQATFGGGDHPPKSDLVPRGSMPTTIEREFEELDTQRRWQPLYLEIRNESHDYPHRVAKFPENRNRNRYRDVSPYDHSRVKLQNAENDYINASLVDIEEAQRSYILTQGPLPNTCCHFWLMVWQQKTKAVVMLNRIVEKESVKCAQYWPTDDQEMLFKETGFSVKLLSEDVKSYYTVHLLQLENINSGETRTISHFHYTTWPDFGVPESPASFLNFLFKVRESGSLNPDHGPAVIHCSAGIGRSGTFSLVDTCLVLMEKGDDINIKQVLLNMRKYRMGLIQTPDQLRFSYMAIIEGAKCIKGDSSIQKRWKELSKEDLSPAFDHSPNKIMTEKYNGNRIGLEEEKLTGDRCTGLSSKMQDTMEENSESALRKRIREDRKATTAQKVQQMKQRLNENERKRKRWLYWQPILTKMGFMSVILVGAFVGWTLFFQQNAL

Row | SMILES | IC50 [1] | IC50 [2, 3] | IC50 [2, 4] | inhibition at 100 µM [2, 5] | inhibition at 100 µM [2, 6]
1 | Cc1cccc(NC(=O)Nc2cc(O)c(N3CC(=O)NS3(=O)=O)c(F)c2)c1 [Example 42, 1-[4-(1,1-dioxido-4-oxo-1,2,5-thiadiazolidin-2-yl)-3-fluoro-5-hydroxyphenyl]-3-(3-methylphenyl)urea] | < 0.005 µM | ≥ 100 µM | ≥ 100 µM | 10 to 50% | 10 to 50%
2 | O=C1CN(c2c(O)cc(NC(=O)Nc3ccc(N4CCOCC4)cc3)cc2F)S(=O)(=O)N1 [Example 65, 1-[4-(1,1-dioxido-4-oxo-1,2,5-thiadiazolidin-2-yl)-3-fluoro-5-hydroxyphenyl]-3-[4-(morpholin-4-yl)phenyl]urea] | < 0.005 µM |  |  |  | 
3 | CC(C)(C)OC(=O)N1CC(CNC(=O)Nc2cc(O)c(N3CC(=O)NS3(=O)=O)c(F)c2)C2(CCCCC2)C1 (centres unmarked) [Example 101, tert-butyl 4-[[[3-fluoro-5-hydroxy-4-(1,1,4-trioxo-1,2,5-thiadiazolidin-2-yl)phenyl]carbamoyl-amino]methyl]-2-azaspiro[4.5]decane-2-carboxylate] | 0.01 to 0.05 µM | 50 to 100 µM | ≥ 100 µM | 50 to 75% | 10 to 50%
4 | CN(c1ccccc1)S(=O)(=O)Nc1cc(O)c(N2CC(=O)NS2(=O)=O)c(F)c1 [Example 31, N′-[4-(1,1-dioxido-4-oxo-1,2,5-thiadiazolidin-2-yl)-3-fluoro-5-hydroxyphenyl]-N-methyl-N-phenylsulfuric diamide] | 0.01 to 0.05 µM |  |  |  | 
5 | O=C1CN(c2c(O)cc(NC(=O)NCC3CNCC34CCCCC4)cc2F)S(=O)(=O)N1 (centres unmarked) [Example 100, 1-(2-azaspiro[4.5]decan-4-ylmethyl)-3-[3-fluoro-5-hydroxy-4-(1,1,4-trioxo-1,2,5-thiadiazolidin-2-yl)phenyl]urea] | 0.01 to 0.05 µM | 10 to 50 µM | ≥ 100 µM | 50 to 75% | 10 to 50%
6 | COc1ccc(NC(=O)Nc2cc(O)c(N3CC(=O)NS3(=O)=O)c(F)c2)cc1C(F)(F)F [Example 68, 1-[4-(1,1-dioxido-4-oxo-1,2,5-thiadiazolidin-2-yl)-3-fluoro-5-hydroxyphenyl]-3-[4-methoxy-3-(trifluoromethyl)phenyl]urea] | < 0.005 µM |  |  |  | 
7 | O=C1CN(c2c(O)cc(-c3cccc(F)c3)cc2F)S(=O)(=O)N1 [Example 2, 5-(3,3′-difluoro-5-hydroxybiphenyl-4-yl)-1,2,5-thiadiazolidin-3-one 1,1-dioxide] | 0.1 to 0.5 µM | 50 to 100 µM | ≥ 100 µM | 50 to 75% | 10 to 50%
8 | Cc1ccccc1-c1cc(O)c(N2CC(=O)NS2(=O)=O)c(F)c1 [Example 6, 5-(3-fluoro-5-hydroxy-2′-methylbiphenyl-4-yl)-1,2,5-thiadiazolidin-3-one 1,1-dioxide] | ≥ 0.5 µM |  |  |  | 
9 | O=C1CN(c2c(O)cc(NC(=O)NCc3ccccc3)cc2F)S(=O)(=O)N1 [Example 60, 1-benzyl-3-[4-(1,1-dioxido-4-oxo-1,2,5-thiadiazolidin-2-yl)-3-fluoro-5-hydroxyphenyl]urea] | 0.01 to 0.05 µM |  |  |  | 
10 | CC(C)(C)c1ccc(S(=O)(=O)Nc2cc(O)c(N3CC(=O)NS3(=O)=O)c(F)c2)cc1 [Example 24, 4-tert-butyl-N-[4-(1,1-dioxido-4-oxo-1,2,5-thiadiazolidin-2-yl)-3-fluoro-5-hydroxyphenyl]benzenesulfonamide] | 0.01 to 0.05 µM | ≥ 100 µM | ≥ 100 µM | 50 to 75% | 10 to 50%
11 | CC(C)(C)c1ccc(C(=O)Nc2cc(O)c(N3CC(=O)NS3(=O)=O)c(F)c2)cc1 [Example 16, 4-tert-butyl-N-[4-(1,1-dioxido-4-oxo-1,2,5-thiadiazolidin-2-yl)-3-fluoro-5-hydroxyphenyl]benzamide] | 0.1 to 0.5 µM | ≥ 100 µM | ≥ 100 µM | 10 to 50% | 10 to 50%
12 | O=C1CN(c2c(O)cc(NC(=O)NC3CCN(S(=O)(=O)c4ccccc4Cl)CC3)cc2F)S(=O)(=O)N1 [Example 51, 1-{1-[(2-chlorophenyl)sulfonyl]piperidin-4-yl}-3-[4-(1,1-dioxido-4-oxo-1,2,5-thiadiazolidin-2-yl)-3-fluoro-5-hydroxyphenyl]urea] | < 0.005 µM | ≥ 100 µM | ≥ 100 µM | 10 to 50% | 10 to 50%
13 | O=C1CN(c2c(O)cc(NC(=O)NC3CCNCC3)cc2F)S(=O)(=O)N1 [Example 99, 1-[3-fluoro-5-hydroxy-4-(1,1,4-trioxo-1,2,5-thiadiazolidin-2-yl)phenyl]-3-(4-piperidyl)urea] | 0.01 to 0.05 µM | 10 to 50 µM | ≥ 100 µM | 50 to 75% | 10 to 50%
14 | O=C1CN(c2c(O)cc(NC(=O)Nc3ccc(N4CCNCC4)cc3)cc2F)S(=O)(=O)N1 [Example 67, 1-[4-(1,1-dioxido-4-oxo-1,2,5-thiadiazolidin-2-yl)-3-fluoro-5-hydroxyphenyl]-3-[4-(piperazin-1-yl)phenyl]urea hydrochloride] | < 0.005 µM |  |  |  | 
15 | Cc1ccc(-c2cc(O)c(N3CC(=O)NS3(=O)=O)c(F)c2)cc1 [Example 10, 5-(3-fluoro-5-hydroxy-4′-methylbiphenyl-4-yl)-1,2,5-thiadiazolidin-3-one 1,1-dioxide] | 0.1 to 0.5 µM |  |  |  | 
16 | CC(C)(C)OC(=O)N1CCN(c2ccc(NC(=O)Nc3cc(O)c(N4CC(=O)NS4(=O)=O)c(F)c3)cc2)CC1 [Example 66, tert-butyl 4-[4-({[4-(1,1-dioxido-4-oxo-1,2,5-thiadiazolidin-2-yl)-3-fluoro-5-hydroxyphenyl]carbamoyl}amino)phenyl]piperazine-1-carboxylate] | < 0.005 µM |  |  |  | 
17 | CN(C1CCCCC1)S(=O)(=O)Nc1cc(O)c(N2CC(=O)NS2(=O)=O)c(F)c1 [Example 32, N-cyclohexyl-N′-[4-(1,1-dioxido-4-oxo-1,2,5-thiadiazolidin-2-yl)-3-fluoro-5-hydroxyphenyl]-N-methylsulfuric diamide] | 0.01 to 0.05 µM |  |  |  | 
18 | Cc1cccc(-c2cc(O)c(N3CC(=O)NS3(=O)=O)c(F)c2)c1 [Example 9, 5-(3-fluoro-5-hydroxy-3′-methylbiphenyl-4-yl)-1,2,5-thiadiazolidin-3-one 1,1-dioxide] | 0.1 to 0.5 µM |  |  |  | 
19 | CC(C)c1ccc(NC(=O)Nc2cc(O)c(N3CC(=O)NS3(=O)=O)c(F)c2)cc1 [Example 70, 1-[4-(1,1-dioxido-4-oxo-1,2,5-thiadiazolidin-2-yl)-3-fluoro-5-hydroxyphenyl]-3-[4-(propan-2-yl)phenyl]urea] | < 0.005 µM |  |  |  | 
20 | O=C1CN(c2c(O)cc(NC(=O)Nc3ccccc3F)cc2F)S(=O)(=O)N1 [Example 93, 1-[4-(1,1-dioxido-4-oxo-1,2,5-thiadiazolidin-2-yl)-3-fluoro-5-hydroxyphenyl]-3-(2-fluorophenyl)urea] | < 0.005 µM |  |  |  | 
21 | O=C1CN(c2c(O)cc(NC(=O)Nc3ccc(OC(F)(F)F)cc3)cc2F)S(=O)(=O)N1 [Example 71, 1-[4-(1,1-dioxido-4-oxo-1,2,5-thiadiazolidin-2-yl)-3-fluoro-5-hydroxyphenyl]-3-[4-(trifluoromethoxy)phenyl]urea] | < 0.005 µM |  |  |  | 

— patent US20240262801A1, “COMPOUNDS HAVING 5-(2-FLUORO-6-HYDROXYPHENYL)-1,2,5-THIADIAZOLIDIN-3-ONE 1,1-DIOXIDE AS INHIBITORS OF PROTEIN KINASE PHOSPHATASE ENZYMES” (Ness Therapeutics, Inc., priority 2021, published 2024)
